For one compound, IC50 results are on record in article PMC2699117, “Drug Discovery Using Chemical Systems Biology: Repositioning the Safe Medicine Comtan to Treat Multi-Drug and Extensively Drug Resistant Tuberculosis” (PLoS Computational Biology, 2009).

Molecules are shown by their SMILES.

This assay has as its target T1, InhA (enoyl-acyl carrier protein reductase) (Mycobacterium tuberculosis, UniProt P9WGR1).
T1 construct: wild-type InhA
Nature of the assay: biochemical.

T1 sequence (P9WGR1 whole entry, looked up): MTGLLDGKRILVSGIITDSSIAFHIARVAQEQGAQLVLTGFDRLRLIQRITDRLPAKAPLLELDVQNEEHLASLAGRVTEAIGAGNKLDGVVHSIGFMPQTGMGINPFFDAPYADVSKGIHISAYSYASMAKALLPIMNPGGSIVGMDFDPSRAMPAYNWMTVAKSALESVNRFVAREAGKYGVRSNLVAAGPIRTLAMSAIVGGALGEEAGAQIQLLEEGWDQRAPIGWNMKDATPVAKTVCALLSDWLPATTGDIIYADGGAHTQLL

Broadly, the IC50 is the concentration needed to halve the response being measured. For `CCN(CC)C(=O)/C(C#N)=C/c1cc(O)c(O)c([N+](=O)[O-])c1` [entacapone], it took 79 ± 10 µM to reach half-maximal inhibition (IC50).
